Results: patent US20070196514A1, “Prostate cancer treatment with glycogen synthase kinase-3beta inhibitors” (priority 2006, published 2007)

Legend:
[1] = system: PC-3 cells; assay: clonogenic assay; type: cell-based, human; details: LiCl 10 mM, 14 days
Procedure: For clonogenic assays, 1.0×10^3 cells were seeded in a 35-mm dish and cultured in a medium containing LiCl at the indicated doses. The cultures were monitored daily for colony formation. On day 14, the cultures were washed with phosphate-buffered saline (“PBS”), fixed, and stained as described previously (Liao 2005). The colonies were counted and photographed under an inverted microscope.
Next, the clonogenic assay was used to test the effect of LiCl on cell colony formation. The clonogenic survival fractions of the cells cultured in the presence or absence of increasing concentration of LiCl were measured in two cell lines, androgen refractory PC-3 (data shown) and androgen-responsive LNCaP (data not shown).

[2] = system: AR-null PC-3 xenografts; assay: mouse xenograft model, protocol A; type: in vivo, nude mice; details: LiCl 2 mg/kg i.p. daily
Procedure: All animal studies were conducted under an approved Institutional Animal Care and Use Committee protocol. Single cell suspensions (2×10^6 cells in 0.1 ml of RPMI1640 medium plus 10% FBS) were inoculated subcutaneously (s.c.) into the rear flanks (two sites/mouse) of 6 to 7 weeks old male nude mice (Charles River, Wilmington, Mass.). For protocol A, mice were randomly divided into two groups (5 animals each). On next day after inoculation, one group of animals received i.p. injection of LiCl at a daily dose of 2 mg/kg body weight. LiCl was dissolved in PBS. The control groups of animals received PBS alone in the same volume. Xenograft development and growth were monitored for 8 weeks. The tumor dimensions were measured twice a week. The tumor volume was calculated by the formula of L×W×H×0.5236 (Miyake 2001). At the end of treatment, xenograft tumors were extirpated, and the final tumor size and weight, as well as animal weight were measured. For protocol B, treatment began until tumor became palpable or 50 mm^3 in size, and LiCl or PBS was injected (5 animals each group) as above for a two-week course. Tumor size and weight were measured at the end of treatment. For BrdU in vivo labeling, the animals were injected i.p. with 0.5 ml of a 10-mM BrdU solution (Invitrogen) 2 hours before sacrifice. For experiments involving LNCaP-BclxL SB216763 subline cells (Liao 2005) were inoculated as above, and SB216763 treatment was started two weeks later when palpable xenografts were established. The SB216763 for animal use was purchased from Biomol (Plymouth Meeting, Pa.) and dissolved in a formula containing 50% N,N-dimethylacetamide (“DMA”), 45% polyethylene glycol 400 (“PEG-400”) and 5% Tween-80. SB216763 (2 mg/kilogram/bodyweight) or the solvent in 20 μl volume was injected i.p. three times a week. Tumor growth was monitored as discussed herein.
This example investigated GSK-3β inhibitor-induced suppression of cancer cell growth in vivo. A mouse xenograft model was used to examine the effect of GSK-3β inhibitor on tumor growth in two different strategies (protocol A and B). In both protocols, LiCl was delivered at a daily dose i.p. of 2 mg/kg of body weight. This dose level is more than 100-fold lower than a therapeutic dose for mental diseases in mouse (Noble 2005) or human (Moore 2002).
In protocol A, LiCl treatment was started on the same day when AR-null PC-3 cancer cells were inoculated into animals. AR-null PC-3 xenografts were developed around 4 weeks after inoculation in PBS-treated control animals.

[3] = system: LNCaP cells; assay: Western blot of cell cycle-related proteins; type: cell-based, human
Procedure: Western blot was carried out as described previously (Liao 2004, Liao 2003, and Liao 2005). Briefly, cells were pellets and lysed in radio-immunoprecipitation assay (“RIPA”) buffer containing protease inhibitors (Half™ Protease Inhibitor Cocktail Kit, PIERCE, Rockford, Ill.). Proteins were separated on SDS-PAGE gels and transferred to Immuno-Blot™ PVDF membrane (BIO-RAD, Hercules, Calif.). Membranes were blocked in a tris-buffered solution plus Tween 20 (“TBST”) solution with 5% nonfat dry milk and incubated with primary antibodies overnight at 4° C. Immunoreactive signals were detected by horseradish peroxidase-conjugated secondary antibodies (Santa Cruz Biotech., Santa Cruz, Calif.) followed by SuperSingnal® WestFeml® Maximum Sensitivity Substrate (PIERCE).
To verify those alterations at a protein level, two series experiments were conducted using Western blot technique. The first involved a time-course experiment. After serum starvation, LNCaP cells were left untreated or treated as before with LiCl for up to 24 hours. Cells were harvested at 18-24 hours.
Next, a dose-response experiment was performed. Following serum starvation for 24 hours, LNCaP cells were treated with BIO at different doses for another 24 hours. Control cells received the vehicle as treatment.

[4] = system: LNCaP cells; assay: Affymetrix cDNA microarray for LiCl-induced changes; type: cell-based, human
Procedure: Genechip® arrays (Affymetrix Inc, Santa Clara, Calif.) used herein contain almost 45,000 probe sets representing more than 39,000 transcripts derived from approximately 33,000 well substantial human genes. The in vitro-transcription labeling is conducted using the EnzoBio array high yield RNA transcript labeling kit (Affymetrix). Ten micrograms of total RNAs were used for the first strand cDNA synthesis using the SuperscriptChoice system (Invitrogen).
Genechips were hybridized for 16 hours at 45° C. and 60 rpm in Genechip hybridization oven Model 640. After washing the Genechip, the signal intensity was detected using the Agilent Gene Array scanner.
This example investigated the genes that are altered by GSK-3β inhibition. This approach started with a genome-wide screening of gene expression with cDNA Microarray to identify the altered genes, which was verified by RT-PCR and Western blot at mRNA and protein levels, respectively. After sequestered in serum-free media for 24 hours, LNCaP cells were left untreated or treated with LiCl in a full culture media for 18 hours. The total cellular RNAs were extracted from the cells for cDNA Microarray analysis.

[5] = protocol A, end of 8-week treatment
[6] = LiCl in full culture media 18 hours, down-regulation
[7] = LiCl in full culture media 18 hours, up-regulation

SMILES: [Cl-].[Li+] [LiCl, Lithium chloride]
- clonogenic surviving fractions [1]: significantly suppressed
- animal body weight and daily activities, treatment vs control ([2]; nude mice): no significant difference
- abnormality of daily activities / side effects ([2]; nude mice, both protocols A and B): no obvious abnormality of daily activities or any sign of side effect
- xenograft development, time after inoculation ([2]; protocol A, PBS control around 4 weeks): 6-7 weeks
- tumor volume vs PBS control [2, 5]: significant reduction
- tumor weight vs PBS control [2, 5]: significant reduction
- protein levels of cyclin B, PCNA, pRb, cdc2, cdc42 and GSK-3β (Western blot) ([3]; LiCl time-course): no significant change
- serum-induced increase of cyclins A and E, cdc6 and cdc25C protein (Western blot) ([3]; LiCl time-course up to 24 hours): dramatically suppressed
- protein levels of cyclin D1 (Western blot) ([3]; LiCl time-course, vs control): slightly higher
- p21CIP1 protein expression (Western blot) ([3]; LiCl time-course, vs untreated control): increased significantly
- fold change, Cyclin A2 (203418_at) [4, 6]: −4.19
- fold change, Cyclin E2 (205034_at) [4, 6]: −2.99
- fold change, Cyclin E2 (211814_s_at) [4, 6]: −2.18
- fold change, cdc6 (203967_at) [4, 6]: −3.47
- fold change, cdc6 (203968_s_at) [4, 6]: −3
- fold change, cdc25c (205167_s_at) [4, 6]: −2.74
- fold change, cdc25c (217010_s_at) [4, 6]: −5.99
- fold change, cyclin B2 (202705_at) [4, 6]: −1.4
- fold change, p27KIP1 (209112_at) [4, 6]: −1.17
- fold change, cyclin D1 (203665_at) [4, 7]: 2.07
- fold change, cyclin D1 (208712_at) [4, 7]: 1.84
- fold change, cyclin G2 (202770_s_at) [4, 7]: 1.87
- fold change, p21CIP1 (202284_s_at) [4, 7]: 5.7
- fold change, p57KIP2 (213348_at) [4, 7]: 1.79
- microarray expression of cyclin D1 ([4]; LiCl treatment): slight increase
- microarray expression of other cell cycle related proteins (cyclin B, cdc2, p27KIP1, p57KIP2) ([4]; LiCl treatment): No significant changes
- treatment signal, p57KIP2 (213348_at) ([4]; LiCl-treated, control signal 137.6): 246.4
- treatment signal, cdc25c (217010_s_at) ([4]; LiCl-treated, control signal 207.8): 34.7
- treatment signal, cyclin D1 (203665_at) ([4]; LiCl-treated, control signal 294.7): 609.3
- treatment signal, cyclin G2 (202770_s_at) ([4]; LiCl-treated, control signal 325.3): 606.9
- treatment signal, p21CIP1 (202284_s_at) ([4]; LiCl-treated, control signal 430.9): 2457.2
- treatment signal, cdc25c (205167_s_at) ([4]; LiCl-treated, control signal 442.3): 161.2
- treatment signal, Cyclin E2 (211814_s_at) ([4]; LiCl-treated, control signal 852.7): 391.2
- treatment signal, cyclin D1 (208712_at) ([4]; LiCl-treated, control signal 853.9): 1568.2
- treatment signal, cdc6 (203968_s_at) ([4]; LiCl-treated, control signal 1132.5): 377.9
- treatment signal, cdc6 (203967_at) ([4]; LiCl-treated, control signal 1136): 327
- treatment signal, Cyclin E2 (205034_at) ([4]; LiCl-treated, control signal 1268.1): 423.8
- treatment signal, p27KIP1 (209112_at) ([4]; LiCl-treated, control signal 1365.8): 1171.7
- treatment signal, Cyclin A2 (203418_at) ([4]; LiCl-treated, control signal 1529.8): 364.7
- treatment signal, cyclin B2 (202705_at) ([4]; LiCl-treated, control signal 2379.1): 1693.9
